According to article PMC11191095, “QSAR Reveals Decreased Lipophilicity of Polar Residues Determines the Selectivity of Antimicrobial Peptide Activity” (ACS Omega, 2024):
≈ marks a conversion by molar mass, not a printed value. Where a SMILES comes first, the peptide text is derived from it.

Tests used:
Assay in all cases: microbe, parasite or virus in culture
[1] = system: P. aeruginosa PAO1; format: cell-based, Pseudomonas aeruginosa; details: for MIC: Pseudomonas aeruginosa, PAO1, 20 h, read-out: Modal MIC; for Modal MIC: P. aeruginosa PAO1 (S)
Experimental: (§1) Antimicrobial activity was evaluated against a panel of 18 pathogens consisting of eight Gram-negative strains (E. coli NCTC 12923, E. coli LEC001, Pseudomonas aeruginosa PAO1, P. aeruginosa NCTC 13437, Acinetobacter baumannii ATCC 17978, A. baumannii AYE, Klebsiella pneumoniae M6, K. pneumoniae NCTC 13368), four Gram-positive strains (Staphylococcus aureus ATCC 9144, S. aureus NCTC 13616, S. aureus USA300, S. aureus 1199B) and six fungi (Candida auris TDG 1912, C. albicans NCPF 8018, C. krusei NCPF 3876, C. tropicalis NCPF 8760, and C. parapsilosis NCPF 3209). Pathogens were grown in noncation adjusted Mueller Hinton broth (MHB, for bacteria) or Roswell Park Memorial Institute (RPMI 1640) + 2% glucose (for fungi) at 37 °C with 180 rpm shaking and maintained on solid media (tryptic soy agar for bacteria and Sabouraud dextrose agar for fungi). For an antibiogram, see Suppl.
(§2) The 46 peptides were serially diluted (128 to 2 μg/mL) in media down polypropylene 96-well plates. Bacteria or fungi, diluted from an overnight culture to an OD600 of 0.01, were added to the serially diluted peptides at a 1:1 ratio resulting in a starting cell density of ∼5 × 10^5 CFU/mL. Plates were incubated at 37 °C for 20 h, and the optical density was determined spectrophotometrically at 600 nm. Minimum inhibition concentrations (MICs) were determined from a minimum of three biological repeats and are reported in μg/mL as well as μM. […] The MIC50 or MIC90 is defined as the lowest peptide concentration that results in 50% or 90% growth inhibition over a 20 h treatment period, respectively.

[2] = system: P. aeruginosa NCTC 13437; format: cell-based, Pseudomonas aeruginosa; details: for MIC: Pseudomonas aeruginosa, NCTC13437, 20 h, read-out: Modal MIC; for Modal MIC: P. aeruginosa NCTC 13437 (R)
Experimental: as §1, §2

[3] = system: K. pneumoniae M6; format: cell-based, Klebsiella pneumoniae; details: for MIC: Klebsiella pneumoniae, M6, 20 h, read-out: Modal MIC
Experimental: as §1, §2

[4] = system: K. pneumoniae NCTC 13368; format: cell-based, Klebsiella pneumoniae; details: for MIC: Klebsiella pneumoniae, NCTC13368, 20 h, read-out: Modal MIC
Experimental: as §1, §2

[5] = system: S. aureus (MRSA) USA300; format: cell-based, Staphylococcus aureus; details: for MIC: Staphylococcus aureus, 20 h, read-out: Modal MIC
Experimental: as §1, §2

[6] = system: S. aureus (MRSA) NCTC 13616; format: cell-based, Staphylococcus aureus; details: for MIC: Staphylococcus aureus, 20 h, read-out: Modal MIC
Experimental: as §1, §2

[7] = system: S. aureus (MRSA) 1199B; format: cell-based, Staphylococcus aureus; details: for MIC: Staphylococcus aureus, MRSA, 20 h, read-out: Modal MIC
Experimental: as §1, §2

[8] = system: S. aureus (MSSA) ATCC 9144; format: cell-based, Staphylococcus aureus; details: for MIC: Staphylococcus aureus, 20 h, read-out: Modal MIC
Experimental: as §1, §2

[9] = system: E. coli LEC001; format: cell-based, Escherichia coli; details: for MIC: Escherichia coli, LEC001, 20 h, read-out: Modal MIC
Experimental: as §1, §2

[10] = system: E. coli NCTC 12923; format: cell-based, Escherichia coli; details: for MIC: Escherichia coli, NCTC12923, 20 h, read-out: Modal MIC
Experimental: as §1, §2

[11] = system: A. baumannii ATCC 17978; format: cell-based, Acinetobacter baumannii; details: for MIC: Acinetobacter baumannii, ATCC17978, 20 h, read-out: Modal MIC
Experimental: as §1, §2

[12] = system: A. baumannii AYE; format: cell-based, Acinetobacter baumannii; details: for MIC: Acinetobacter baumannii, 20 h, read-out: Modal MIC
Experimental: as §1, §2

[13] = system: C. parapsilosis NCPF 3209; format: cell-based; details: C. parapsilosis NCPF 3209
Experimental: as §1, §2

[14] = system: C. glabrata NCPF 8018; format: cell-based; details: C. glabrata NCPF 8018
Experimental: as §1, §2

[15] = system: C. krusei NCPF 3876; format: cell-based; details: C. krusei NCPF 3876; shown in µM
Experimental: as §1, §2

[16] = system: C. albicans NCPF 3281; format: cell-based; details: C. albicans NCPF 3281
Experimental: as §1, §2

[17] = system: C. tropicalis NCPF 8760; format: cell-based; details: C. tropicalis NCPF 8760; shown in µM
Experimental: as §1, §2

[18] = system: C. auris TDG 1912; format: cell-based, Candida auris; details: C. auris TDG 1912
Experimental: as §1, §2

[19] = MHB, 37 °C, 20 h, OD600, min. three biological repeats
[20] = 50% growth inhibition, RPMI 1640 + 2% glucose, 37 °C, 20 h
[21] = 90% growth inhibition, RPMI 1640 + 2% glucose, 37 °C, 20 h

CC(C)(O/N=C(\C(=O)N[C@@H]1C(=O)N2C(C(=O)[O-])=C(C[n+]3ccccc3)CS[C@H]12)c1csc(N)n1)C(=O)O [Ceftazidime, reference compound]
MIC [1]: 1 µg/mL (≈ 1.83 µM) | MIC [2]: > 128 µg/mL | MIC [3]: < 0.5 µg/mL | MIC [4]: 512 µg/mL (≈ 937 µM) | MIC [5]: 32 µg/mL (≈ 58.5 µM) | MIC [6]: 128 µg/mL (≈ 234 µM) | MIC [7]: 8 µg/mL (≈ 14.6 µM) | MIC [8]: 16 µg/mL (≈ 29.3 µM) | MIC [9]: 128 µg/mL (≈ 234 µM) | MIC [10]: ≤ 0.125 µg/mL | MIC [11]: < 0.5 µg/mL | MIC [12]: > 128 µg/mL

O=C(O)c1cn(C2CC2)c2cc(N3CCNCC3)c(F)cc2c1=O [Ciprofloxacin, reference compound]
MIC [1]: 0.5 µg/mL (≈ 1.51 µM) | MIC [2]: 64 µg/mL (≈ 193 µM) | MIC [3]: < 0.5 µg/mL | MIC [4]: 0.5 µg/mL (≈ 1.51 µM) | MIC [5]: 64 µg/mL (≈ 193 µM) | MIC [6]: 64 µg/mL (≈ 193 µM) | MIC [7]: 8 µg/mL (≈ 24.1 µM) | MIC [8]: 1 µg/mL (≈ 3.02 µM) | MIC [9]: 32 µg/mL (≈ 96.6 µM) | MIC [10]: ≤ 0.125 µg/mL | MIC [11]: 0.5 µg/mL (≈ 1.51 µM) | MIC [12]: 128 µg/mL (≈ 386 µM)

CC[C@H](C)[C@H](NC(=O)[C@H](C)NC(=O)CNC(=O)[C@H](C)NC(=O)[C@H](CCCCN)NC(=O)[C@H](CO)NC(=O)[C@H](C)NC(=O)[C@H](CCSC)NC(=O)CN)C(=O)N[C@@H](C)C(=O)NCC(=O)N[C@@H](CCCCN)C(=O)N[C@H](C(=O)N[C@@H](C)C(=O)N[C@@H](CCCCN)C(=O)N[C@H](C(=O)N[C@@H](C)C(=O)N[C@@H](CC(C)C)C(=O)N[C@@H](CCCCN)C(=O)N[C@@H](C)C(=O)N[C@@H](CC(C)C)C(N)=O)C(C)C)[C@@H](C)CC [DRAMP02272a] (H-GMASKAGAIAGKIAKVALKAL-NH2)
Modal MIC [1, 19]: > 128 µg/mL | Modal MIC ([1]; shown in µM): > 64 µM | Modal MIC [2, 19]: > 128 µg/mL | Modal MIC ([2]; shown in µM): > 64 µM | Modal MIC ([3]; K. pneumoniae M6 (S), shown in µM): 16 µM | Modal MIC ([4]; K. pneumoniae NCTC 13368 (R), shown in µM): 32 µM | Modal MIC ([5]; S. aureus (MRSA) USA300 (R), shown in µM): 16 µM | Modal MIC ([6]; S. aureus (MRSA) NCTC 13616 (R), shown in µM): 8 µM | Modal MIC ([7]; S. aureus (MRSA) 1199B (R), shown in µM): 32 µM | Modal MIC ([8]; S. aureus (MSSA) ATCC 9144 (S), shown in µM): 4 µM | Modal MIC ([9]; E. coli LEC001 (R), shown in µM): 4 µM | Modal MIC ([10]; E. coli NCTC 12923 (S), shown in µM): 2 µM | Modal MIC ([11]; A. baumannii ATCC 17978 (S), shown in µM): 2 µM | Modal MIC ([12]; A. baumannii AYE (R), shown in µM): 1 µM | Modal MIC50 [13, 20]: > 128 µg/mL | Modal MIC90 [13, 21]: > 128 µg/mL | Modal MIC50 ([13]; shown in µM): > 64 µM | Modal MIC90 ([13]; shown in µM): > 64 µM | Modal MIC50 [14, 20]: > 128 µg/mL | Modal MIC90 [14, 21]: > 128 µg/mL | Modal MIC50 ([14]; shown in µM): > 64 µM | Modal MIC90 ([14]; shown in µM): > 64 µM | Modal MIC50 [15]: 64 µM | Modal MIC90 [15]: 64 µM | Modal MIC50 [16, 20]: > 128 µg/mL | Modal MIC90 [16, 21]: > 128 µg/mL | Modal MIC50 ([16]; shown in µM): > 64 µM | Modal MIC90 ([16]; shown in µM): > 64 µM | Modal MIC50 [17]: 16 µM | Modal MIC90 [17]: 16 µM | Modal MIC50 ([18]; 50% growth inhibition, RPMI 1640 + 2% glucose, 37 °C, 20 h, OD600): > 128 µg/mL | Modal MIC90 ([18]; 90% growth inhibition, RPMI 1640 + 2% glucose, 37 °C, 20 h, OD600): > 128 µg/mL | Modal MIC50 ([18]; shown in µM): > 64 µM | Modal MIC90 ([18]; shown in µM): > 64 µM
